Measured values as given in patent US20170253601A1, “Substituted Pyrrolidine Compounds” (EPIZYME, INC., priority 2014, published 2017).

Target: T1, SMYD2 (Homo sapiens, UniProt Q9NRG4)
T1 construct: Full length SMYD2 (NP 064582.2) was cloned; His6 (N, cleaved yes); FLAG (N); made in house; host or cells: Sf9 insect cells
Assay: SMYD2 Biochemical Assay (3H-SAM, biotinylated peptide substrate, Flashplate)
Conditions: IC50 values are an average of n = 1 to n = 50; read-out: SMYD2 Biochem IC50 (μM)*
Procedure, shortened: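 Methyltransferase activity tracked as 3H transfer from 10 nM 3H-SAM to 60 nM biotinylated peptide, counted after streptavidin Flashplate capture and normalised to DMSO and 1000 uM SAH controls. Enzyme: 1.5 nM full-length Sf9-expressed SMYD2, 30 min compound pre-incubation at room temperature, in Bicine pH 7.6 buffer with 2% DMSO; reactions quenched with 600 uM unlabelled SAM; IC50 from 3- or 4-parameter fit.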

T1 sequence (Q9NRG4 whole entry): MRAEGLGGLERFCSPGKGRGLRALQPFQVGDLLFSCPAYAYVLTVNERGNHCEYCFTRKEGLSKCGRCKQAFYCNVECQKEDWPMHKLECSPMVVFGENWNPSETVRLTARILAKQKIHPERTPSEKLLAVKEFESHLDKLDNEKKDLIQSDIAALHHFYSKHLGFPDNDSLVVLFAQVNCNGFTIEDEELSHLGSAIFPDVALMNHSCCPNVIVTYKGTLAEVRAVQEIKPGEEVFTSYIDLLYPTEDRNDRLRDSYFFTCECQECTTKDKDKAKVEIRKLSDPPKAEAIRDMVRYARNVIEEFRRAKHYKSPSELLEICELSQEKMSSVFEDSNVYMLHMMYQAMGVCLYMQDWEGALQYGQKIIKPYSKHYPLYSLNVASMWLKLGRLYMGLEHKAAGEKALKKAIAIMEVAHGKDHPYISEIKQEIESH

Row | IC50 [µM] | Structure (SMILES)
1 | 7.69 | C[C@H]1CN(CC2CCN(C(=O)OC(C)(C)C)CC2)C[C@H]1NC(=O)c1cc(C2CC2)on1 (racemic) [compound 205, (±)-cis-tert-butyl 4-{[3-(5-cyclopropyl-1,2-oxazole-3-amido)-4-methylpyrrolidin-1-yl]methyl}piperidine-1-carboxylate]
2 | 4.32 | C[C@H]1CN(Cc2ccc(Cl)cc2)C[C@H]1NC(=O)c1cc(C2CC2)on1 (racemic) [compound 210, (±)-cis-N-[1-[(4-chloro-phenyl)methyl]-4-methylpyrrolidin-3-yl]-5-cyclopropyl-1,2-oxazole-3-carboxamide]
3 | > 50 | C[C@H]1CN(Cc2cnc3ncccn23)C[C@H]1NC(=O)c1cc(C2CC2)on1 (racemic) [compound 211, (±)-cis-5-cyclopropyl-N-[1-{imidazo[1,2-a]pyrimidin-3-ylmethyl}-4-methylpyrrolidin-3-yl]-1,2-oxazole-3-carboxamide]
4 | 5.23 | COc1ccc(CN2C[C@H](C)[C@H](NC(=O)c3cc(C4CC4)on3)C2)c(OC)c1 (racemic) [compound 212, (±)-cis-5-cyclopropyl-N-[1-[(2,4-dimethoxy-phenyl)methyl]-4-methylpyrrolidin-3-yl]-1,2-oxazole-3-carboxamide]
5 | 1.62 | CC(C)CCN1C[C@H](C)[C@H](NC(=O)c2cc(C3CC3)on2)C1 (racemic) [compound 213, (±)-cis-5-cyclopropyl-N-[4-methyl-1-(3-methylbutyl)pyrrolidin-3-yl]-1,2-oxazole-3-carboxamide]
6 | 29.5 | Cc1ccc2[nH]cc(CN3C[C@H](C)[C@H](NC(=O)c4cc(C5CC5)on4)C3)c2c1 (racemic) [compound 214, (±)-cis-5-cyclopropyl-N-[4-methyl-1-[(5-methyl-1H-indol-3-yl)methyl]pyrrolidin-3-yl]-1,2-oxazole-3-carboxamide]
7 | > 50 | C[C@@H]1CN(CC(F)F)C[C@H]1NC(=O)c1cc(C2CC2)on1 (racemic) [compound 215, (±)-trans-5-cyclopropyl-N-[1-(2,2-difluoro-ethyl)-4-methylpyrrolidin-3-yl]-1,2-oxazole-3-carboxamide]
8 | > 50 | C[C@H]1CN(CC(F)F)C[C@H]1NC(=O)c1cc(C2CC2)on1 (racemic) [compound 216, (±)-cis-5-cyclopropyl-N-[1-(2,2-difluoroethyl)-4-methylpyrrolidin-3-yl]-1,2-oxazole-3-carboxamide]
9 | 22.3 | CC(C)N1C[C@H](C)[C@H](NC(=O)c2cc(C3(C)CC3)on2)C1 (racemic) [compound 217, (±)-cis-N-[4-methyl-1-(propan-2-yl)pyrrolidin-3-yl]-5-(1-methyl-cyclopropyl)-1,2-oxazole-3-carboxamide]
10 | 37.4 | CC(C)[C@@H]1CN(C)C[C@@H]1NC(=O)c1cc(C2CC2)on1 (racemic) [compound 218, (±)-cis-5-cyclopropyl-N-[1-methyl-4-(propan-2-yl)pyrrolidin-3-yl]-1,2-oxazole-3-carboxamide]
11 | > 50 | CC(C)[C@H]1CN(C(C)C)C[C@H]1NC(=O)c1cc(C2CC2)on1 (racemic) [compound 219, (±)-cis-N-[1,4-bis(propan-2-yl)pyrrolidin-3-yl]-5-cyclopropyl-1,2-oxazole-3-carboxamide]

The remaining lines, values behind:

Row | Structure (SMILES) | IC50 [µM]
12 | C[C@@H]1CN(Cc2cc([N+](=O)[O-])ccc2F)C[C@H]1NC(=O)c1cc(C2CC2)on1 (racemic) [compound 179, (±)-trans-5-cyclopropyl-N-[1-[(2-fluoro-5-nitrophenyl)methyl]-4-methylpyrrolidin-3-yl]-1,2-oxazole-3-carboxamide] | > 50
13 | C[C@@H]1CN(Cc2c[nH]cn2)C[C@H]1NC(=O)c1cc(C2CC2)on1 (racemic) [compound 180, (±)-trans-5-cyclopropyl-N-[1-(1H-imidazol-4-ylmethyl)-4-methylpyrrolidin-3-yl]-1,2-oxazole-3-carboxamide] | 42.5
14 | COc1cc(CN2C[C@@H](C)[C@H](NC(=O)c3cc(C4CC4)on3)C2)cc(OC)c1 (racemic) [compound 181, (±)-trans-5-cyclopropyl-N-[1-[(3,5-dimethoxy-phenyl)methyl]-4-methylpyrrolidin-3-yl]-1,2-oxazole-3-carboxamide] | > 50
15 | Cc1nn(C)cc1CN1C[C@@H](C)[C@H](NC(=O)c2cc(C3CC3)on2)C1 (racemic) [compound 183, (±)-trans-5-cyclopropyl-N-[1-[(1,3-dimethyl-1H-pyrazol-4-yl)methyl]-4-methylpyrrolidin-3-yl]-1,2-oxazole-3-carboxamide] | > 50
16 | C[C@@H]1CN(Cc2ccnn2C)C[C@H]1NC(=O)c1cc(C2CC2)on1 (racemic) [compound 184, (±)-trans-5-cyclopropyl-N-[4-methyl-1-[(1-methyl-1H-pyrazol-5-yl)methyl]pyrrolidin-3-yl]-1,2-oxazole-3-carboxamide] | > 50
17 | C[C@H]1CN(CC2CCCOC2)C[C@H]1NC(=O)c1cc(C2CC2)on1 (mixture of isomers) [compound 185, (±)-cis-5-cyclopropyl-N-[4-methyl-1-(oxan-3-ylmethyl)pyrrolidin-3-yl]-1,2-oxazole-3-carboxamide] | 4.92
18 | CC[C@H]1CN(C)C[C@H]1NC(=O)c1cc(C2CC2)on1 (racemic) [compound 187, (±)-cis-5-cyclopropyl-N-[4-ethyl-1-methyl-pyrrolidin-3-yl]-1,2-oxazole-3-carboxamide] | 18.1
19 | CC[C@H]1CN(C(C)C)C[C@H]1NC(=O)c1cc(C2CC2)on1 (racemic) [compound 188, (±)-cis-5-cyclopropyl-N-[4-ethyl-1-(propan-2-yl)pyrrolidin-3-yl]-1,2-oxazole-3-carboxamide] | 15.9
20 | CC(C)N1C[C@@H](C)[C@H](NC(=O)c2cc(C3CC3)on2)C1 (racemic) [compound 191, (±)-trans-5-cyclopropyl-N-[4-methyl-1-(propan-2-yl)pyrrolidin-3-yl]-1,2-oxazole-3-carboxamide] | 40.3
21 | CC(C)c1cc(C(=O)N[C@@H]2CN(C(C)C)C[C@H]2C)no1 (racemic) [compound 192, (±)-trans-N-[4-methyl-1-(propan-2-yl)pyrrolidin-3-yl]-5-(propan-2-yl)-1,2-oxazole-3-carboxamide] | > 50
22 | CC(C)c1cc(C(=O)N[C@@H]2CN(C(C)C)C[C@@H]2C)no1 (racemic) [compound 193, (±)-cis-N-[4-methyl-1-(propan-2-yl)pyrrolidin-3-yl]-5-(propan-2-yl)-1,2-oxazole-3-carboxamide] | 7.85
23 | C[C@H]1CN(Cc2c[nH]c3ccccc23)C[C@H]1NC(=O)c1cc(C2CC2)on1 (racemic) [compound 194, (±)-cis-5-cyclopropyl-N-[1-(1H-indol-3-ylmethyl)-4-methyl-pyrrolidin-3-yl]-1,2-oxazole-3-carboxamide] | 6.86
24 | C[C@H]1CN(Cc2cc3ccccc3s2)C[C@H]1NC(=O)c1cc(C2CC2)on1 (racemic) [compound 195, (±)-cis-N-[1-(1-benzothiophen-2-ylmethyl)-4-methyl-pyrrolidin-3-yl]-5-cyclopropyl-1,2-oxazole-3-carboxamide] | 33.4
25 | CCc1nc(C)c(CN2C[C@H](C)[C@H](NC(=O)c3cc(C4CC4)on3)C2)[nH]1 (racemic) [compound 196, (±)-cis-5-cyclopropyl-N-(1-[(2-ethyl-4-methyl-1H-imidazol-5-yl)methyl]-4-methylpyrrolidin-3-yl)-1,2-oxazole-3-carboxamide] | 35.5
26 | C[C@H]1CN(Cc2ccnc3ccccc23)C[C@H]1NC(=O)c1cc(C2CC2)on1 (racemic) [compound 197, (±)-cis-5-cyclopropyl-N-[4-methyl-1-(quinolin-4-ylmethyl)pyrrolidin-3-yl]-1,2-oxazole-3-carboxamide] | > 50
27 | C[C@H]1CN(Cc2ccc(-c3cc(Cl)ccc3Cl)o2)C[C@H]1NC(=O)c1cc(C2CC2)on1 (racemic) [compound 198, (±)-cis-5-cyclopropyl-N-(1-{[5-(2,5-dichloro-phenyl)furan-2-yl]methyl}-4-methyl-pyrrolidin-3-yl)-1,2-oxazole-3-carboxamide] | > 50
28 | CC[C@H]1CN(C(C)C)C[C@@H]1NC(=O)c1cc(C2CC2)on1 (racemic) [compound 199, (±)-trans-5-cyclopropyl-N-[4-ethyl-1-(propan-2-yl)pyrrolidin-3-yl]-1,2-oxazole-3-carboxamide] | 25.7
29 | CC(C)N1C[C@@H](C)[C@H](NC(=O)c2cc(C(C)(C)C)on2)C1 (racemic) [compound 200, (±)-trans-5-tert-butyl-N-[4-methyl-1-(propan-2-yl)pyrrolidin-3-yl]-1,2-oxazole-3-carboxamide] | > 50
30 | CC(C)N1C[C@H](C)[C@H](NC(=O)c2cc(C(C)(C)C)on2)C1 (racemic) [compound 201, (±)-cis-5-tert-butyl-N-[4-methyl-1-(propan-2-yl)pyrrolidin-3-yl]-1,2-oxazole-3-carboxamide] | > 50
31 | C[C@H]1CN(CC2CCC2)C[C@H]1NC(=O)c1cc(C2CC2)on1 (racemic) [compound 202, (±)-cis-N-[1-(cyclobutyl-methyl)-4-methyl-pyrrolidin-3-yl]-5-cyclopropyl-1,2-oxazole-3-carboxamide] | 1.63
32 | C[C@@H]1CN(Cc2c[nH]c3cc(Cl)ccc23)C[C@H]1NC(=O)c1cc(C2CC2)on1 (racemic) [compound 203, (±)-trans-N-[1-[(6-chloro-1H-indol-3-yl)methyl]-4-methyl-pyrrolidin-3-yl]-5-cyclopropyl-1,2-oxazole-3-carboxamide] | 48.3
33 | C[C@@H]1CN(Cc2ccc3ncccc3c2)C[C@H]1NC(=O)c1cc(C2CC2)on1 (racemic) [compound 204, (±)-trans-5-cyclopropyl-N-[4-methyl-1-(quinolin-6-ylmethyl)pyrrolidin-3-yl]-1,2-oxazole-3-carboxamide] | > 50
